ChEMBL document CHEMBL3045297, “Synthesis and antifungal activity of 2-azetidinonyl-5-(2-benzoylphenoxy)methyl-1,3,4-oxadiazoles against seed-borne pathogens of Eleusine coracana (L.) Gaertn” (2009)

How the values were obtained:
Assay type in all cases: functional
[1] = tested on: Eleusine coracana; assay: Phytostimulatory activity in Eleusine coracana (finger mellet) seedlings assessed as vigour index at 1 g/L (reference value: 567 +/- 0.5 no unit)
[2] = tested on: Pyricularia grisea; assay: Antifungal activity against Magnaporthe grisea infected finger millet seed assessed as fungal occurrence at 1 g/L after 1 week by stereoscopic analysis (reference value: 12.5 +/- 0.35%)
[3] = tested on: Eleusine coracana; assay: Induction of seed germination in Eleusine coracana (finger mellet) at 10 g/L (reference value: 81 +/- 0.40%)
[4] = tested on: Eleusine coracana; assay: Induction of seed germination in Eleusine coracana (finger mellet) at 1 g/L (reference value: 81 +/- 0.40%)
[5] = tested on: Eleusine coracana; assay: Induction of seed germination in Eleusine coracana (finger mellet) at 40 g/L (reference value: 81 +/- 0.40%)
[6] = tested on: Eleusine coracana; assay: Phytostimulatory activity in Eleusine coracana (finger mellet) seedlings assessed as vigour index at 40 g/L (reference value: 567 +/- 0.5 no unit)
[7] = tested on: Eleusine coracana; assay: Phytostimulatory activity in Eleusine coracana (finger mellet) seedlings assessed as vigour index at 20 g/L (reference value: 567 +/- 0.5 no unit)
[8] = tested on: Pyricularia grisea; assay: Antifungal activity against Magnaporthe grisea infected finger millet seed assessed as fungal occurrence at 40 g/L after 1 week by stereoscopic analysis (reference value: 12.5 +/- 0.35%)
[9] = tested on: Pyricularia grisea; assay: Antifungal activity against Magnaporthe grisea infected finger millet seed assessed as fungal occurrence at 20 g/L after 1 week by stereoscopic analysis (reference value: 12.5 +/- 0.35%)
[10] = tested on: Bipolaris setariae; assay: Antifungal activity against Bipolaris setariae infected finger millet seed assessed as fungal occurrence at 40 g/L after 1 week by stereoscopic analysis (reference value: 18 +/- 0.40%)
[11] = tested on: Eleusine coracana; assay: Induction of seed germination in Eleusine coracana (finger mellet) at 20 g/L (reference value: 81 +/- 0.40%)
[12] = tested on: Pyricularia grisea; assay: Antifungal activity against Magnaporthe grisea infected finger millet seed assessed as fungal occurrence at 10 g/L after 1 week by stereoscopic analysis (reference value: 12.5 +/- 0.35%)
[13] = tested on: Bipolaris setariae; assay: Antifungal activity against Bipolaris setariae infected finger millet seed assessed as fungal occurrence at 10 g/L after 1 week by stereoscopic analysis (reference value: 18 +/- 0.40%)
[14] = tested on: Eleusine coracana; assay: Phytostimulatory activity in Eleusine coracana (finger mellet) seedlings assessed as vigour index at 10 g/L (reference value: 567 +/- 0.5 no unit)
[15] = tested on: Bipolaris setariae; assay: Antifungal activity against Bipolaris setariae infected finger millet seed assessed as fungal occurrence at 1 g/L after 1 week by stereoscopic analysis (reference value: 18 +/- 0.40%)
[16] = tested on: Bipolaris setariae; assay: Antifungal activity against Bipolaris setariae infected finger millet seed assessed as fungal occurrence at 20 g/L after 1 week by stereoscopic analysis (reference value: 18 +/- 0.40%)

SMILES: O=C(c1ccccc1)c1cc(Cl)ccc1OCc1nnc(N2C(=O)C(Cl)C2c2cccc(Br)c2)o1 (stereo unspecified)
- Vigour_index [1]: 544
- Activity [2]: 6%
- Activity [3]: 83%
- Activity [4]: 81%
- Activity [5]: 86%
- Vigour_index [6]: 641
- Vigour_index [7]: 620
- Activity [8]: 3%
- Activity [9]: 4%
- Activity [10]: 6%
- Activity [11]: 83%
- Activity [12]: 5%
- Activity [13]: 10%
- Vigour_index [14]: 585
- Activity [15]: 11%
- Activity [16]: 7%

SMILES: Cc1ccc(C(=O)c2cc(C)ccc2OCc2nnc(N3C(=O)C(Cl)C3c3cccc(Br)c3)o2)cc1 (stereo unspecified)
- Vigour_index [1]: 594
- Activity [2]: 4%
- Activity [3]: 82%
- Activity [4]: 80%
- Activity [5]: 83%
- Vigour_index [6]: 659
- Vigour_index [7]: 680
- Activity [8]: 1%
- Activity [9]: 1.5%
- Activity [10]: 1.5%
- Activity [11]: 86%
- Activity [12]: 4%
- Activity [13]: 6%
- Vigour_index [14]: 633
- Activity [15]: 14%
- Activity [16]: 2.5%

SMILES: Cc1ccc(OCc2nnc(N3C(=O)C(Cl)C3c3cccc(Br)c3)o2)c(C(=O)c2ccc(Cl)cc2)c1 (stereo unspecified)
- Vigour_index [1]: 588
- Activity [2]: 4%
- Activity [3]: 85%
- Activity [4]: 81%
- Activity [5]: 87%
- Vigour_index [6]: 693
- Vigour_index [7]: 645
- Activity [8]: 2%
- Activity [9]: 3%
- Activity [10]: 4.5%
- Activity [11]: 85%
- Activity [12]: 3%
- Activity [13]: 9%
- Vigour_index [14]: 611
- Activity [15]: 11%
- Activity [16]: 5%

SMILES: Cc1ccc(OCc2nnc(N3C(=O)C(Cl)C3c3cccc(Br)c3)o2)c(C(=O)c2cccc(Cl)c2)c1 (stereo unspecified)
- Vigour_index [1]: 581
- Activity [2]: 5%
- Activity [3]: 80%
- Activity [4]: 80%
- Activity [5]: 80%
- Vigour_index [6]: 630
- Vigour_index [7]: 639
- Activity [8]: 4.5%
- Activity [9]: 4.5%
- Activity [10]: 6%
- Activity [11]: 82%
- Activity [12]: 3.5%
- Activity [13]: 4.5%
- Vigour_index [14]: 590
- Activity [15]: 3.5%
- Activity [16]: 2.5%

SMILES: O=C(c1ccccc1)c1ccc(Br)cc1OCc1nnc(N2C(=O)C(Cl)C2c2cccc(Br)c2)o1 (stereo unspecified)
- Vigour_index [1]: 572
- Activity [2]: 4%
- Activity [3]: 86%
- Activity [4]: 81%
- Activity [5]: 83%
- Vigour_index [6]: 663
- Vigour_index [7]: 655
- Activity [8]: 2.5%
- Activity [9]: 3.5%
- Activity [10]: 2.5%
- Activity [11]: 86%
- Activity [12]: 3.5%
- Activity [13]: 4.5%
- Vigour_index [14]: 615
- Activity [15]: 13.5%
- Activity [16]: 3.5%

SMILES: COc1ccc(C(=O)c2cc(C)ccc2OCc2nnc(N3C(=O)C(Cl)C3c3cccc(Br)c3)o2)cc1 (stereo unspecified)
- Vigour_index [1]: 626
- Activity [2]: 3.5%
- Activity [3]: 88%
- Activity [4]: 85%
- Activity [5]: 84%
- Vigour_index [6]: 688
- Vigour_index [7]: 706
- Activity [8]: 1%
- Activity [9]: 1%
- Activity [10]: 2%
- Activity [11]: 90%
- Activity [12]: 2.5%
- Activity [13]: 2.5%
- Vigour_index [14]: 658
- Activity [15]: 3.5%
- Activity [16]: 2%

SMILES: O=C(c1cccc(Cl)c1)c1cc(Cl)ccc1OCc1nnc(N2C(=O)C(Cl)C2c2cccc(Br)c2)o1 (stereo unspecified)
- Vigour_index [1]: 622
- Activity [2]: 2%
- Activity [3]: 86%
- Activity [4]: 85%
- Activity [5]: 90%
- Vigour_index [6]: 700
- Vigour_index [7]: 711
- Activity [8]: 0.5%
- Activity [9]: 0.5%
- Activity [10]: 0.5%
- Activity [11]: 89%
- Activity [12]: 1%
- Activity [13]: 2%
- Vigour_index [14]: 668
- Activity [15]: 2.5%
- Activity [16]: 0.5%

SMILES: Cc1cc(OCc2nnc(N3C(=O)C(Cl)C3c3cccc(Br)c3)o2)c(C(=O)c2ccccc2)cc1Cl (stereo unspecified)
- Vigour_index [1]: 661
- Activity [2]: 3%
- Activity [3]: 86%
- Activity [4]: 86%
- Activity [5]: 82%
- Vigour_index [6]: 656
- Vigour_index [7]: 715
- Activity [8]: 0%
- Activity [9]: 1%
- Activity [10]: 2%
- Activity [11]: 89%
- Activity [12]: 2%
- Activity [13]: 1%
- Vigour_index [14]: 677
- Activity [15]: 2%
- Activity [16]: 2%

SMILES: Cc1ccc(OCc2nnc(N3C(=O)C(Cl)C3c3cccc(Br)c3)o2)c(C(=O)c2ccccc2Cl)c1 (stereo unspecified)
- Vigour_index [1]: 645
- Activity [2]: 3.5%
- Activity [3]: 84%
- Activity [4]: 82%
- Activity [5]: 89%
- Vigour_index [6]: 692
- Vigour_index [7]: 754
- Activity [8]: 1%
- Activity [9]: 2%
- Activity [10]: 2%
- Activity [11]: 86%
- Activity [12]: 3%
- Activity [13]: 3.5%
- Vigour_index [14]: 674
- Activity [15]: 4%
- Activity [16]: 2%

SMILES: Cc1ccc(OCc2nnc(N3C(=O)C(Cl)C3c3cccc(Br)c3)o2)c(C(=O)c2ccccc2)c1 (stereo unspecified)
- Vigour_index [1]: 565
- Activity [2]: 12%
- Activity [3]: 81%
- Activity [4]: 80%
- Activity [5]: 86%
- Vigour_index [6]: 620
- Vigour_index [7]: 589
- Activity [8]: 2%
- Activity [9]: 2.5%
- Activity [10]: 1%
- Activity [11]: 84%
- Activity [12]: 3.5%
- Activity [13]: 6%
- Vigour_index [14]: 569
- Activity [15]: 15%
- Activity [16]: 4.5%

SMILES: COC(=O)Nc1nc2ccccc2[nH]1 [CARBENDAZIM]
- Vigour_index [1]: 567
- Activity [2]: 1.5%
- Activity [3]: 84%
- Activity [4]: 82%
- Activity [5]: 87%
- Vigour_index [6]: 621
- Vigour_index [7]: 612
- Activity [8]: 1%
- Activity [9]: 1%
- Activity [10]: 2%
- Activity [11]: 85%
- Activity [12]: 1.5%
- Activity [13]: 3%
- Vigour_index [14]: 579
- Activity [15]: 3%
- Activity [16]: 2%
